# Measured values published in patent US9579328B2, “Prostaglandin and vasoconstrictor pharmaceutical compositions and methods of use” (ALLERGAN, INC., priority 2012, dated 2017).
# Like-named read-outs stand apart in the source and are kept apart here.
# Tests used:
# [1] = system: rabbit isolated jugular veins; assay: Vasorelaxation in histamine-precontracted rabbit isolated jugular veins; assay type: cell-based
# From the text: FIG. 3. Concentration-response curves for (FIG. 3A) bimatoprost and (FIG. 3B) latanoprost free acid in histamine-precontracted endothelium-intact and endothelium-denuded rabbit isolated jugular veins. Results are expressed as mean±S.E.M. of 5-6 animals. FIG. 3A adapted from Chen J et al., Invest Ophthalmol Vis Sci 2004; 45:ARVO E-Abstract 2609; FIG. 3B extends results reported in Chen J et al., Invest Ophthalmol Vis Sci 2004; 45:ARVO E-Abstract 2609; and Pharmacology Review of New Drug Application 21-275. FDA/Center for Drug Evaluation and Research. 2001;Part 1 and Part 2:1-107. Available online at http://www.fda.gov/cder/foi/nda/2001/21275_Lumigan.htm.
# FIG. 4. Concentration-response curves for (FIG. 4A) bimatoprost and (FIG. 4B) latanoprost free acid in the presence or absence of indomethacin in endothelium-intact rabbit isolated jugular veins. Results are expressed as mean±S.E.M. of 7 animals and extend previous results reported in Pharmacology Review of New Drug Application 21-275. FDA/Center for Drug Evaluation and Research. 2001;Part 1 and Part 2:1-107. Available online at http://www.fda.gov/cder/foi/nda/2001/21275_Lumigan.htm.
# FIG. 5. Concentration-response curves for (FIG. 5A) bimatoprost and (FIG. 5B) latanoprost free acid in the presence of 100 μM L-NAME or 100 (μM D-NAME control in endothelium-intact rabbit isolated jugular veins. Results are expressed as mean±S.E.M. of 6 animals. *P≦0.05, compared to responses in D-NAME pretreated tissues at the same concentration, paired t-test.
# The pharmacological mechanism of ocular surface hyperemia elicited by bimatoprost and latanoprost was investigated using the rabbit jugular vein preparation as a quantitative in vitro model (Chen J. et al., Br J Pharmacol 1995; 116:3035-3041). In these studies, tissues were suspended in jacketed organ baths containing Krebs buffer with 1 μM indomethacin (endothelium-intact and -denuded) or in its absence (endothelium-intact) and precontracted with 3 μM histamine. Vasorelaxant and contractile activity were determined as a percentage (%) of the control tone elicited by histamine. Statistical comparisons for the vasorelaxant activity consisted of testing for significance of difference at each of the concentrations tested using the Student'-s t-test for unpaired samples (indomethacin vs no indomethacin) and paired samples (L-NAME vs D-NAME). Differences were considered statistically significant for P-values ≦0.05.
# Indomethacin is a cyclooxygenase inhibitor that is routinely used in prostanoid receptor assays (Chen J et al., Current protocols in pharmacology. New York: John Wiley & Sons, Inc., 2001; 4.18.1-4.18.41). Studies of intact and viable isolated tissues, such as the rabbit jejunum (Ferreira S H, Herman A G, Vane J R., Br J Pharmacol 1976; 56:469-477) and human bronchial muscle (Haye-Legrand I, Cerrina J, Raffestin B et al., J Pharmacol Exp Ther 1986; 239:536-541), found the basal output of prostaglandins to be 8-23 pg/mg of tissue at baseline or over 30 min collection periods. In the presence of 1.7 and 2.79 μM indomethacin, the amounts of prostaglandins generated in isolated tissues become negligible (Botting J H, Salzmann R., Br J Pharmacol 1974; 50:119-124; Haye-Legrand I, Cerrina J, Raffestin B et al., J Pharmacol Exp Ther 1986; 239:536-541). The 1 μM concentration of indomethacin in the tissue bath, in our experience, is sufficient to prevent biosynthesis of prostanoids within isolated vascular tissue preparations (Alster P, Wennmalm Å., Eur J Pharmacol 1983; 86:441-446; Chen J et al., Current protocols in pharmacology. New York: John Wiley & Sons, Inc., 2001; 4.18.1-4.18.41). At substantially higher concentrations, indomethacin has been reported to lose selectivity for prostanoid biosynthesis inhibition (Aboulafia J et al., Br J Pharmacol 1976; 58:223-228; Goodfriend T L, Simpson R U., Br J Pharmacol 1981; 72:247-255; Northover B J, Br J Pharmacol 1971; 41:540-551; Sawdy R et al., Br J Pharmacol 1998; 125:1212-1217). […]
# [2] = system: lower palpebral conjunctiva of rabbits, dogs, and non-human primates; details: cited from earlier work
# [3] = system: bulbar conjunctiva of patients; details: bimatoprost 0.03% q.d. for 60 days; biopsies at day 7 and impression cytology; cited from earlier work
# [4] = system: conjunctiva of patients with bilateral open-angle glaucoma or ocular hypertension; details: bimatoprost 0.03% once daily, cited from earlier work
# [5] = system: eyes of conscious Beagle dogs; details: bimatoprost 0.1%, latanoprost 0.005%, cited from earlier work
# [6] = system: palpebral conjunctiva of Dutch-Belted (pigmented) rabbits; details: left eye, Bimatoprost 0.03% b.i.d. one month, n = 19; cited from earlier work
# [7] = system: palpebral conjunctiva of Cynomolgus monkeys; details: cited from earlier work
# [8] = system: palpebral conjunctiva of Beagle dogs; details: n = 6 per group, left eye, cited from earlier work
# [9] = non-human primate, after single or multiple topical bimatoprost dosing; cited from earlier work
# [10] = system: human cultured conjunctiva-derived epithelial cells; details: cited from earlier work
# [11] = bimatoprost 0.001% q.i.d. topical ocular for one month
# [12] = bimatoprost 0.01% q.i.d. topical ocular for one month
# [13] = bimatoprost 0.1% q.i.d. topical ocular for one month
compound,measurement,setting,value
"CCNC(=O)CCC/C=C\C[C@@H]1[C@@H](/C=C/[C@@H](O)CCc2ccccc2)[C@H](O)C[C@@H]1O [Bimatoprost, bimatoprost]",vasorelaxant response in presence of 100 μM L-NAME compared to 100 μM D-NAME control,"[1]; endothelium-intact histamine precontracted tissues, P≦0.05 paired t-test",significantly inhibited
same,difference in effects with and without 1 μM indomethacin,"[1]; endothelium-intact tissues, each concentration tested",no statistically significant differences
same,"Incidence of inflammatory infiltrates above background, lower palpebral conjunctiva: number of animals with histopathologic findings (per total number of animals)","[2]; Dogs, Beagle, 1 month, 0.1% q.i.d. topical",0 (6)
same,"Incidence of inflammatory infiltrates above background, lower palpebral conjunctiva: number of animals with histopathologic findings (per total number of animals)","[2]; Monkeys, Cynomolgus, 12 months, 0.1% b.i.d. topical",0 (60)
same,"Incidence of inflammatory infiltrates above background, lower palpebral conjunctiva: number of animals with histopathologic findings (per total number of animals)","[2]; Rabbits, Dutch-Belted, 1 month, 0.03% b.i.d. topical",0 (19)
same,"Incidence of inflammatory infiltrates above background, lower palpebral conjunctiva: number of animals with histopathologic findings (per total number of animals)","[2]; Rabbits, Dutch-Belted, 6 months, 0.1% b.i.d. topical",1 (20)
same,"Incidence of inflammatory infiltrates above background, lower palpebral conjunctiva: number of animals with histopathologic findings (per total number of animals)","[2]; Rabbits, New Zealand White, 1 month, 0.1% q.i.d. topical",0 (16)
same,compound-related findings in eyes of the animal species,"[2]; multiple subclinical, clinical, and exaggerated doses","No compound-related findings of corneal toxicity, discomfort or irritation, or histopathological changes"
same,in-life evaluations: treatment-related ocular surface inflammation,[2]; periods of up to one year exposure,no treatment-related ocular surface inflammation
same,evidence of inflammation,[3],no evidence of inflammation
same,time at which frequency and severity of hyperemia peaked after the first instillation,"[4]; 39 patients, slit-lamp biomicroscopy",approximately 1 day
same,hyperemia returning to near baseline levels,[4]; month-long study,≤ 28 days
same,clinical significance of the hyperemia,[4],not clinically significant
same,ocular surface hyperemic response (severity),"[5]; D-NAME treated control eyes, scale 0=none, 0.5=trace, 1=mild, 2=moderate, 3=severe",trace to mild
same,effect of L-NAME on elicited ocular surface hyperemia,"[5]; L-NAME 1% treated eyes, PGE2 0.01%, 0-6 h",blocked
same,"Incidence of mononuclear cell infiltration in palpebral conjunctiva, Lower Eyelid, Minimal/mild",[6],12 number of animals
same,"Incidence of mononuclear cell infiltration in palpebral conjunctiva, Lower Eyelid, Moderate",[6],0 number of animals
same,"Incidence of mononuclear cell infiltration in palpebral conjunctiva, Upper Eyelid, Minimal/mild",[6],6 number of animals
same,"Incidence of inflammation in palpebral conjunctiva (number of animals with histopathologic findings), Upper Eyelid, Chronic active","[7]; n = 6, right eye, bimatoprost 0.03% b.i.d. for 12 months",5
same,"Incidence of inflammation in palpebral conjunctiva (number of animals with histopathologic findings), Upper Eyelid, Chronic active","[7]; n = 6, right eye, bimatoprost 0.1% b.i.d. for 12 months",3
same,"Incidence of inflammation in palpebral conjunctiva (number of animals with histopathologic findings), Upper Eyelid, Chronic active","[7]; n = 8, right eye, bimatoprost 0.03% q.d. for 12 months",4
same,"Incidence of minimal-to-mild mononuclear cell infiltration in palpebral conjunctiva (number of animals with histopathologic findings), Lower Eyelid",[8]; [11],3
same,"Incidence of minimal-to-mild mononuclear cell infiltration in palpebral conjunctiva (number of animals with histopathologic findings), Upper Eyelid",[8]; [11],4
same,"Incidence of minimal-to-mild mononuclear cell infiltration in palpebral conjunctiva (number of animals with histopathologic findings), Lower Eyelid",[8]; [12],5
same,"Incidence of minimal-to-mild mononuclear cell infiltration in palpebral conjunctiva (number of animals with histopathologic findings), Upper Eyelid",[8]; [12],3
same,"Incidence of minimal-to-mild mononuclear cell infiltration in palpebral conjunctiva (number of animals with histopathologic findings), Lower Eyelid",[8]; [13],6
same,"Incidence of minimal-to-mild mononuclear cell infiltration in palpebral conjunctiva (number of animals with histopathologic findings), Upper Eyelid",[8]; [13],5
same,concentrations found in ocular surface tissues,[9],10^−6-10^−5 molar equivalent
same,direct stimulation of inflammatory pathways involving adhesion molecules or class II antigens,[10]; in vitro,None of the drugs appeared to induce direct stimulation of inflammatory pathways
same,toxicity observed,[10]; primarily related to the concentration of benzalkonium chloride,mild
